We go through three compounds from patent US10799496B2, “Naphthylenyl compounds for long-acting injectable compositions and related methods” (priority 2018, dated 2020).

Data set [1] in a line: Whole blood stability assay. The note with it: prodrug 50 nM, fresh pooled human whole blood, 37 degrees C.; read-out: t1/2 at 37 degrees C. in human whole blood. The class given is in vitro ADME. Here is the method: Naltrexone prodrug stability was assessed using freshly collected whole blood (within 24-hr collection) from pooled human (n=3) donors. The incubation mixtures were prepared by spiking the prodrugs into pre-warmed (37 degrees C.) fresh whole blood to a final concentration of 50 nM. After gentle mixing, aliquots of incubation mixtures were immediately transferred into four different 96-deep well plates. One plate was used for each time point. The plates were incubated at 37 degrees C. at a shaking speed of 100 rpm. At time points 15, 30, 60 and 120 minutes, the reaction was quenched by addition of a mixture of water and acetonitrile containing the internal standard (naltrexone-D3). Time point 0 minutes was prepared separately by spiking the prodrugs into a quenched whole blood to obtain a final concentration of 50 nM. All samples were vortexed at a low speed for 15 min and centrifuged at 3900 rpm for 15 min. Supernatants were transferred into 96-well plates for LC-MS/MS analysis to monitor the depletion of the prodrugs and the formation of naltrexone.
The amount of remaining prodrug and released naltrexone for each sample was quantitated against the calibration curves prepared with the whole blood. The human whole blood was purchased from BioreclamationIVT (Westbury, N.Y., USA). Naltrexone-D3 was purchased from CERILLIANT® (Round Rock, Tex., USA). […] Where multiple runs have been completed, average values are reported.

Data set [2] can be described thus: Pharmacokinetic evaluation of the release of naltrexone from Compound 2 in rats following a single intramuscular injection. In kind it is in vivo, Sprague-Dawley rats. The note with it: for Compound 2i conc.: rat plasma. As for the experimental part: Five male Sprague-Dawley rats were allowed to acclimate to the test facility for at least 2 days prior to study start. For dose administration of Compound 2, the rats were lightly anesthetized with isofluorane, the hind leg shaved and dosed intramuscularly with the formulation using a 21G needle. […] Serial whole blood samples were collected via sublingual route (˜150 μL) at 1, 8, and 24 hours post dose, and at 2, 4, 7, 10, 14, 17, 21, 24, 28, 35, 42, 49, 56, 63, 71, 78, 85, and 91 days post dose.
Blood samples were placed into K2EDTA blood collection tubes. After collection, blood samples were maintained chilled (on wet ice) and centrifuged (11,500 rpm for 2 minutes at 5 degrees C.) within 30 minutes to obtain plasma. Plasma was transferred into a single vial, 1.5 mL screw cap micro-centrifuge tube with inserts and stored at −80 degrees C. until analysis.
The formulation dosed was a crystalline suspension of Compound 2 (46 milligrams of Compound 2 dosed per animal), wherein the crystalline test article was characterized with a particle size distribution of Dv10=12.9 μm, Dv50=31.5 μm, and Dv90=63.1 μm (as measured via laser diffraction). The formulation was prepared the day before dosing. Details of the formulation dosed are described in Table D below.
Results of the above intramuscular rat study of Compound 2 are shown in Tables E and F. In particular, Table E reports the average blood plasma levels of naltrexone in rat (n=5) over 91 days following intramuscular administration.

`O=C(Cc1cccc2c(CC(=O)Oc3ccc4c5c3O[C@H]3C(=O)CC[C@@]6(O)[C@@H](C4)N(CC4CC4)CC[C@]536)cccc12)Oc1ccc2c3c1O[C@H]1C(=O)CC[C@@]4(O)[C@@H](C2)N(CC2CC2)CC[C@]314` [Compound 1, bis((4R,4aS,7aR,12bS)-3-(cyclopropylmethyl)-4a-hydroxy-7-oxo-2,3,4,4a,5,6,7,7a-octahydro-1H-4,12-methanobenzofuro[3,2-e]isoquinolin-9-yl) 2,2′-(naphthalene-1,5-diyl)diacetate]: in data set [1], the half-life at 50 nM came out at 26.4 min.

For the compound `O=C(O)Cc1ccc2cc(CC(=O)Oc3ccc4c5c3O[C@H]3C(=O)CC[C@@]6(O)[C@@H](C4)N(CC4CC4)CC[C@]536)ccc2c1` [Compound 2i, 2-(6-(2-(((4R,4aS,7aR,12bS)-3-(cyclopropylmethyl)-4a-hydroxy-7-oxo-2,3,4,4a,5,6,7,7a-octahydro-1H-4,12-methanobenzofuro[3,2-e]isoquinolin-9-yl)oxy)-2-oxoethyl)naphthalen-2-yl)acetic acid], the “Compound 2i conc.” value in data set [2] (single i.m. dose of Compound 2, day 0.042 (1 hr), Rat 1) was below 0.2 ng/mL; in data set [2] (single i.m. dose of Compound 2, day 0.042 (1 hr), Rat 2), below 0.2 ng/mL; in data set [2] (single i.m. dose of Compound 2, day 0.042 (1 hr), Rat 3), below 0.2 ng/mL; in data set [2] (single i.m. dose of Compound 2, day 0.042 (1 hr), Rat 4) it was below 0.2 ng/mL; in data set [2] (single i.m. dose of Compound 2, day 0.042 (1 hr), Rat 5), below 0.2 ng/mL; in data set [2] (single i.m. dose of Compound 2, day 0.33 (8 hr), Rat 1), below 0.2 ng/mL. The “Compound 2i conc.” value in data set [2] (single i.m. dose of Compound 2, day 0.33 (8 hr), Rat 2) is reported as below 0.2 ng/mL; in data set [2] (single i.m. dose of Compound 2, day 0.33 (8 hr), Rat 3), below 0.2 ng/mL; in data set [2] (single i.m. dose of Compound 2, day 0.33 (8 hr), Rat 4), below 0.2 ng/mL; in data set [2] (single i.m. dose of Compound 2, day 0.33 (8 hr), Rat 5) it was below 0.2 ng/mL; in data set [2] (single i.m. dose of Compound 2, day 1, Rat 1), below 0.2 ng/mL; in data set [2] (single i.m. dose of Compound 2, day 1, Rat 2), below 0.2 ng/mL. Further, the “Compound 2i conc.” value in data set [2] (single i.m. dose of Compound 2, day 1, Rat 3) is below 0.2 ng/mL; in data set [2] (single i.m. dose of Compound 2, day 1, Rat 4) it was below 0.2 ng/mL; in data set [2] (single i.m. dose of Compound 2, day 1, Rat 5), below 0.2 ng/mL; in data set [2] (single i.m. dose of Compound 2, day 2, Rat 1) it was below 0.2 ng/mL; in data set [2] (single i.m. dose of Compound 2, day 2, Rat 2) it was below 0.2 ng/mL; in data set [2] (single i.m. dose of Compound 2, day 2, Rat 3), below 0.2 ng/mL. In addition, the “Compound 2i conc.” value in data set [2] (single i.m. dose of Compound 2, day 2, Rat 4) is on record as below 0.2 ng/mL; in data set [2] (single i.m. dose of Compound 2, day 2, Rat 5), below 0.2 ng/mL; in data set [2] (single i.m. dose of Compound 2, day 4, Rat 1), below 0.2 ng/mL; in data set [2] (single i.m. dose of Compound 2, day 4, Rat 2) it was below 0.2 ng/mL; in data set [2] (single i.m. dose of Compound 2, day 4, Rat 3), below 0.2 ng/mL; in data set [2] (single i.m. dose of Compound 2, day 4, Rat 4), below 0.2 ng/mL. The “Compound 2i conc.” value in data set [2] (single i.m. dose of Compound 2, day 4, Rat 5) is given as below 0.2 ng/mL; in data set [2] (single i.m. dose of Compound 2, day 7, Rat 1), below 0.2 ng/mL; in data set [2] (single i.m. dose of Compound 2, day 7, Rat 2), below 0.2 ng/mL; in data set [2] (single i.m. dose of Compound 2, day 7, Rat 3) it was below 0.2 ng/mL; in data set [2] (single i.m. dose of Compound 2, day 7, Rat 4) it was below 0.2 ng/mL; in data set [2] (single i.m. dose of Compound 2, day 7, Rat 5) it was below 0.2 ng/mL. Besides, the “Compound 2i conc.” value is recorded as below 0.2 ng/mL in data set [2] (single i.m. dose of Compound 2, day 10, Rat 5); below 0.1 ng/mL in data set [2] (single i.m. dose of Compound 2, day 49, Rat 1); below 0.1 ng/mL in data set [2] (single i.m. dose of Compound 2, day 49, Rat 2); below 0.1 ng/mL in data set [2] (single i.m. dose of Compound 2, day 49, Rat 3); below 0.1 ng/mL in data set [2] (single i.m. dose of Compound 2, day 49, Rat 4); below 0.1 ng/mL in data set [2] (single i.m. dose of Compound 2, day 56, Rat 1). In addition, the “Compound 2i conc.” value is reported as below 0.1 ng/mL in data set [2] (single i.m. dose of Compound 2, day 56, Rat 2); below 0.1 ng/mL in data set [2] (single i.m. dose of Compound 2, day 56, Rat 3); below 0.1 ng/mL in data set [2] (single i.m. dose of Compound 2, day 56, Rat 4); below 0.1 ng/mL in data set [2] (single i.m. dose of Compound 2, day 56, Rat 5); below 0.1 ng/mL in data set [2] (single i.m. dose of Compound 2, day 63, Rat 1); below 0.1 ng/mL in data set [2] (single i.m. dose of Compound 2, day 63, Rat 2). The “Compound 2i conc.” value is below 0.1 ng/mL in data set [2] (single i.m. dose of Compound 2, day 63, Rat 3); below 0.1 ng/mL in data set [2] (single i.m. dose of Compound 2, day 63, Rat 4); below 0.1 ng/mL in data set [2] (single i.m. dose of Compound 2, day 63, Rat 5); below 0.1 ng/mL in data set [2] (single i.m. dose of Compound 2, day 71, Rat 1); below 0.1 ng/mL in data set [2] (single i.m. dose of Compound 2, day 71, Rat 2); below 0.1 ng/mL in data set [2] (single i.m. dose of Compound 2, day 71, Rat 3). Besides, the “Compound 2i conc.” value in data set [2] (single i.m. dose of Compound 2, day 71, Rat 4) was below 0.1 ng/mL; in data set [2] (single i.m. dose of Compound 2, day 71, Rat 5) it was below 0.1 ng/mL; in data set [2] (single i.m. dose of Compound 2, day 78, Rat 1) it was below 0.1 ng/mL; in data set [2] (single i.m. dose of Compound 2, day 78, Rat 2), below 0.1 ng/mL; in data set [2] (single i.m. dose of Compound 2, day 78, Rat 3) it was below 0.1 ng/mL; in data set [2] (single i.m. dose of Compound 2, day 78, Rat 4), below 0.1 ng/mL. Besides, the “Compound 2i conc.” value in data set [2] (single i.m. dose of Compound 2, day 78, Rat 5) is below 0.1 ng/mL; in data set [2] (single i.m. dose of Compound 2, day 85, Rat 1), below 0.1 ng/mL; in data set [2] (single i.m. dose of Compound 2, day 85, Rat 2) it was below 0.1 ng/mL; in data set [2] (single i.m. dose of Compound 2, day 85, Rat 3) it was below 0.1 ng/mL; in data set [2] (single i.m. dose of Compound 2, day 85, Rat 4), below 0.1 ng/mL; in data set [2] (single i.m. dose of Compound 2, day 85, Rat 5), below 0.1 ng/mL. The “Compound 2i conc.” value in data set [2] (single i.m. dose of Compound 2, day 91, Rat 1) is below 0.1 ng/mL; in data set [2] (single i.m. dose of Compound 2, day 91, Rat 2), below 0.1 ng/mL; in data set [2] (single i.m. dose of Compound 2, day 91, Rat 3), below 0.1 ng/mL; in data set [2] (single i.m. dose of Compound 2, day 91, Rat 4), below 0.1 ng/mL; in data set [2] (single i.m. dose of Compound 2, day 91, Rat 5), below 0.1 ng/mL. Also, the “plasma concentrations of parent Compound 2 and the resultant intermediate” value in data set [2] (rat, single i.m. dose of Compound 2, over 91 days) is reported as “generally low to not measurable”.

On to `CC(=O)Oc1c(CC(=O)Oc2ccc3c4c2O[C@H]2C(=O)CC[C@@]5(O)[C@@H](C3)N(CC3CC3)CC[C@]425)ccc2c(OC(C)=O)c(CC(=O)Oc3ccc4c5c3O[C@H]3C(=O)CC[C@@]6(O)[C@@H](C4)N(CC4CC4)CC[C@]536)ccc12` [Compound 3, bis((4R,4aS,7aR,12bS)-3-(cyclopropylmethyl)-4a-hydroxy-7-oxo-2,3,4,4a,5,6,7,7a-octahydro-1H-4,12-methanobenzofuro[3,2-e]isoquinolin-9-yl) 2,2′-(1,5-diacetoxynaphthalene-2,6-diyl)diacetate], for which the half-life at 50 nM in data set [1] was found to be 14.8 min.
